Assay results from patent US6572751B1, “Method and apparatus for continuous flow isoelectric focusing for purifying biological substances” (priority 1997, dated 2003).

Legend:
[1] = system: E. coli and two Streptococcus Spp.; conditions: disk tests
[2] = Lysozyme activity of fractions; assay type: biochemical
Description: For this Exarnple, egg white was collected from 2,000 eggs (about 50 L) and diluted in ice-cold distilled water, up to 150 L. All manipulations were done at 4° C. The solution was filtered and introduced into a 4 L apparatus according to the present invention, and having three working outflow ports (plus two electrode outflows). The contifocuser was initially filled with distilled water. The flow rate was adjusted at 75 ml/min, a DC 1,000 Volts was established, and the initial power of the system was 1.5 W. After adding the crude egg white suspension, the power raised to 10.5 W. The contifocusing lasted 34 hrs. […] This suspension was gradually introduced into a 1 L contifocuser with three working and two electrode outflow ports. The flow rate with distilled water was adjusted at 10 ml/min, 1,000 V/DC. […] The contifocusing lasted 3 days. The outflow nearest to the cathode, at pH 10.5, was collected. […] This fraction of 12 L was thereafter introduced in four fractions onto 200×1500 mm chromatographic columns packed by a molecular sieving gel, Spheron P-200, and 25 ml fractions were collected.

Compound	inhibition [1] [%]	protein-splitting activity ([2]; first peak after Spheron P-200 gel chromatography)	lysozyme concentration (activity) ([2]; outflow at pH 10.5 after first contifocusing run) [U/ml]
CN(C)[C@@H]1C(=O)C(C(N)=O)=C(O)[C@@]2(O)C(=O)C3=C(O)c4c(O)cccc4[C@@](C)(O)[C@H]3C[C@@H]12 [original material, Tetracyclin]	85		
lysozyme: enzyme isolated from egg white by contifocusing		20,000 U/g	200
